{"source": "patent US12453726B2", "about": "“Methods of using factor B inhibitors” (priority 2020, dated 2025)", "key": {"[1]": {"system": "PNH patients with active hemolysis despite treatment with eculizumab", "assay": "Phase 2 study CLNP023X2201 interim analysis: LNP023 hydrochloride add-on to eculizumab in PNH patients with active hemolysis", "assay_type": "in vivo, human", "experimental": "(§1) The dose of 200 mg LNP023 hydrochloride b.i.d. as continuous treatment has been selected for this Phase 3 study primarily based on the available efficacy and safety data obtained at the time of interim analyses from the two ongoing Phase 2 PNH studies (ClinicalTrials.gov Identifier: NCT03439839 and NCT03896152) and is supported by PKPD modeling results.\nIn the CLNP023X2201 study in patients with active hemolysis despite treatment with eculizumab, LNP023 hydrochloride at a dose of 200 mg b.i.d. was administered to 10 PNH participants (cohort 1) and at a dose of 50 mg b.i.d. to 6 PNH participants (cohort 2). An interim analysis (IA) was conducted after 10 participants (cohort 1) completed at least 12 weeks of treatment with LNP023 hydrochloride 200 mg b.i.d. add-on treatment to eculizumab.\n(§2) The hematological response participants achieved with LNP023 hydrochloride 200 mg b.i.d. add-on therapy was maintained with LNP023 hydrochloride monotherapy during the extension period (at the time of the IA) when eculizumab treatment was discontinued in 5/10 participants who continued with LNP023 hydrochloride monotherapy. Following the IA, two additional participants discontinued eculizumab treatment."}, "[2]": {"system": "anti-C5 antibody treatment naive PNH patients", "assay": "Phase 2 study interim analysis: LNP023 hydrochloride monotherapy in anti-C5 antibody treatment naive PNH patients", "assay_type": "in vivo, human", "experimental": "as §1\nIn the Phase 2 study (NCT03439839) in anti-C5 antibody treatment naive patients, participants received LNP023 hydrochloride monotherapy with sequential dose increments at Week 4 from LNP023 hydrochloride 25 mg b.i.d. to 100 mg b.i.d (sequence 1) or LNP023 hydrochloride 50 mg b.i.d. to 200 mg b.i.d. (sequence 2). An IA was conducted after 8 patients were randomized and 7 patients completed Week 8 visit assessments.\nas §2"}, "[3]": {"system": "patients with IgA nephropathy", "assay": "Study CLNP023X2203, safety and tolerability", "assay_type": "in vivo, human", "details": "200 mg b.i.d."}, "[4]": {"system": "patients with C3 glomerulopathy", "assay": "Study CLNP023X2202, safety and tolerability", "assay_type": "in vivo, human", "details": "200 mg b.i.d."}, "[5]": {"system": "alternative pathway", "assay": "Exposure-response model from First In Human study data (Wieslab assay)", "details": "dose of about 200 mg b.i.d., in >70% of subjects; model built on healthy volunteer data", "experimental": "The exposure-response model developed with data from the First In Human (FIH) study with LNP023 hydrochloride in healthy volunteers predicts that a dose of about 200 mg b.i.d. would be needed to achieve >90% inhibition of the alternative pathway (Wieslab assay) in >70% of subjects. Given the risk of hemolysis and breakthroughs in cases of insufficient inhibition of complement activity, full inhibition is desired and modelling results provide additional support for the choice of the dose of 200 mg b.i.d. for PNH."}, "[6]": {"details": "200 mg b.i.d. added to eculizumab"}, "[7]": {"details": "200 mg b.i.d. as add-on to eculizumab, cohort 1, interim analysis"}, "[8]": {"details": "200 mg b.i.d., PNH participants"}}, "note": "Counter-ions that a name gives are not always drawn.", "data": [{"compound": "CCO[C@H]1CCN(Cc2c(OC)cc(C)c3[nH]ccc23)[C@H](c2ccc(C(=O)O)cc2)C1", "note": "[LNP023 hydrochloride, 4-((2S,4S)-(4-ethoxy-1-((5-methoxy-7-methyl-1H-indol-4-yl)methyl)piperidin-2-yl))benzoic acid hydrochloride]", "values": [{"measurement": "C3 deposition", "setting": "[1]; [6]", "result": "fully reversed"}, {"measurement": "Fragment Bb (target engagement)", "setting": "[1]; [6]", "result": "profound and sustained reduction"}, {"measurement": "inhibition of the complement alternative pathway", "setting": "[1]; [6]", "result": "sustained inhibition"}, {"measurement": "survival of PNH red blood cells", "setting": "[1]; [6]", "result": "prolonged"}, {"measurement": "bilirubin (control of EVH)", "setting": "[1]; [7]", "result": "reduction"}, {"measurement": "haptoglobin (control of EVH)", "setting": "[1]; [7]", "result": "increase"}, {"measurement": "hemoglobin in the absence of red blood cell transfusions", "setting": "[1]; [7]", "result": "normalization of hemoglobin in the majority of patients"}, {"measurement": "reticulocytes (control of EVH)", "setting": "[1]; [7]", "result": "reduction"}, {"measurement": "control of IVH demonstrated by LDH", "setting": "[1]; 200 mg b.i.d. as add-on to eculizumab, cohort 1, interim analysis after at least 12 weeks", "result": "LDH reduction"}, {"measurement": "hematological response during the extension period after eculizumab was discontinued", "setting": "[1]; 200 mg b.i.d. monotherapy, 5/10 participants who discontinued eculizumab", "result": "maintained"}, {"measurement": "safety and tolerability", "setting": "[1]; [8]", "result": "safe and well tolerated"}, {"measurement": "response at 50 mg b.i.d.", "setting": "[1]; cohort 2, 50 mg b.i.d., preliminary, three participants required up-titration to 200 mg b.i.d.", "result": "suboptimal response"}, {"measurement": "safety and tolerability", "setting": "[2]; [8]", "result": "safe and well tolerated"}, {"measurement": "bilirubin (extravascular hemolysis)", "setting": "[2]; monotherapy", "result": "decrease"}, {"measurement": "haptoglobin (extravascular hemolysis)", "setting": "[2]; monotherapy", "result": "increase"}, {"measurement": "reticulocytes (extravascular hemolysis)", "setting": "[2]; monotherapy", "result": "decrease"}, {"measurement": "transfusion-free hemoglobin", "setting": "[2]; monotherapy, dose levels ≥25 mg b.i.d.", "result": "early transfusion-free hemoglobin increase in the majority of participants"}, {"measurement": "LDH reduction from baseline", "setting": "[2]; monotherapy, dose levels ≥25 mg b.i.d., all participants", "result": "more than 60%"}, {"measurement": "safety and tolerability", "setting": "[3]", "result": "safe and well tolerated"}, {"measurement": "safety and tolerability", "setting": "[4]", "result": "safe and well tolerated"}, {"measurement": "predicted inhibition of the alternative pathway (Wieslab assay)", "setting": "[5]", "result": "> 90", "unit": "%"}]}]}
